Values joined by “and” are separate entries in the source; they are usually repeats but may differ in a detail not shown here. Identical values can stand only once. “Also recorded” adds a separate entry of the source. Blank lines part the entries; values can stand above or below the molecule they belong to.
Legend:
[1] = molecular target: 3A4 (Homo sapiens, UniProt P08684); experiment: CYP450 inhibition assay
[2] = protein binding, human
[3] = PubChem database; cited from earlier work
[4] = molecular target: C25 N172D (Mus musculus, UniProt P35561, A121P/A131S/A173S/C101L/C149F/C169V/C89I/D114R/D152E/DEL116-120/E125N/E153Q/F103W/F129M/F98L/G111K/I106V/I137L/I156T/I175M/I176C/I87V/INS113PEFYPPDN/L105V/L108Y/L109V/L90T/L94G/L97F/M160L/M180L/P155A/S124E/S128G/T141V/V102L/V126I/V158I/V161L/V162I/V167L/V179I/V86T/V93L/W104Y); experiment: patch clamp, C25 N172D mutant; settings: pH 7.4
[5] = molecular target: Kir1.1 N171D (Rattus norvegicus, UniProt P35560, N171D); experiment: patch clamp, Kir1.1 N171D mutant
[6] = molecular target: hERG (Homo sapiens, UniProt Q12809); experiment: Ricerca Lead Profiling Screen radioligand binding
[7] = Ricerca Lead Profiling Screen, 68 radioligand binding assays; settings: GPCRs, ion channels and transporters
[8] = molecular target: T1, C25 chimera (Mus musculus, UniProt P35561, A121P/A131S/A173S/C101L/C149F/C169V/C89I/D114R/D152E/D172N/DEL116-120/E125N/E153Q/F103W/F129M/F98L/G111K/I106V/I137L/I156T/I175M/I176C/I87V/INS113PEFYPPDN/L105V/L108Y/L109V/L90T/L94G/L97F/M160L/M180L/P155A/S124E/S128G/T141V/V102L/V126I/V158I/V161L/V162I/V167L/V179I/V86T/V93L/W104Y); experiment: patch clamp, C25 chimera; type: cell-based, mouse/rat; settings: for inhibition of C25 current: pH 7.4
T1 sequence (P35561 with tags, fused parts or gaps V86T/I87V/C89I/L90T/V93L/L94G/L97F/F98L/C101L/V102L/F103W/W104Y/L105V/I106V/L108Y/L109V/G111K/INS113PEFYPPDN/D114R/DEL116-120/A121P/S124E/E125N/V126I/S128G/F129M/A131S/I137L/T141V/C149F/D152E/E153Q/P155A/I156T/V158I/M160L/V161L/V162I/V167L/C169V/D172N/A173S/I175M/I176C/V179I/M180L): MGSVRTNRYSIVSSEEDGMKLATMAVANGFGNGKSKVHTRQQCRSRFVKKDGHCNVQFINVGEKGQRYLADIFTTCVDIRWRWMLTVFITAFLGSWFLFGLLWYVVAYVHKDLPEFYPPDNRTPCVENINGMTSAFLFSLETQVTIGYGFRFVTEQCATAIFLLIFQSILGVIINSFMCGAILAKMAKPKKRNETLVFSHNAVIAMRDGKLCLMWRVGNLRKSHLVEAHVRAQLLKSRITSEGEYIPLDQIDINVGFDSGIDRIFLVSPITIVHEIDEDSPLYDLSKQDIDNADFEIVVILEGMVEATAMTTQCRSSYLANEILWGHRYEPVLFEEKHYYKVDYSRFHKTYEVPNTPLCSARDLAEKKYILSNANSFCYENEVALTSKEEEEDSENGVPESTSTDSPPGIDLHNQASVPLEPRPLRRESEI

[9] = molecular target: N-type calcium channels (Rattus norvegicus, UniProt Q02294); experiment: Ricerca Lead Profiling Screen radioligand binding
[10] = molecular target: 1A2 (Homo sapiens, UniProt P05177)
[11] = molecular target: T2, Kir2.1 (Mus musculus, UniProt P35561); experiment: whole cell
T2 sequence (P35561 1-428): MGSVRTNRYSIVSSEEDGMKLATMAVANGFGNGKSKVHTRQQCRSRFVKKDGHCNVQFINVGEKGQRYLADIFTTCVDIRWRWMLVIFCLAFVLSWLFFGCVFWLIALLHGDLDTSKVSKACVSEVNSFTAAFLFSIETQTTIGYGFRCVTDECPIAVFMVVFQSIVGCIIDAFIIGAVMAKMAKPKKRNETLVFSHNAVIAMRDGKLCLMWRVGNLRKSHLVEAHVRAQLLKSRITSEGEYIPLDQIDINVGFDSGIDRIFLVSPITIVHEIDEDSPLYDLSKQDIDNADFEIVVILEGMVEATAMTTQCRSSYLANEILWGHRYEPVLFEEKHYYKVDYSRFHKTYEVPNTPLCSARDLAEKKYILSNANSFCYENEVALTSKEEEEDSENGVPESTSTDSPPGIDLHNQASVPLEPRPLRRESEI

[12] = intrinsic clearance, rat
[13] = protein binding, rat
[14] = molecular target: Kir2.1 D172N (Mus musculus, UniProt P35561, D172N); experiment: patch clamp, Kir2.1 D172N mutant
[15] = molecular target: T3, Kir1.1 (Rattus norvegicus, UniProt P35560); experiment: whole cell patch clamp, Kir1.1; type: cell-based
T3 sequence (P35560 1-391): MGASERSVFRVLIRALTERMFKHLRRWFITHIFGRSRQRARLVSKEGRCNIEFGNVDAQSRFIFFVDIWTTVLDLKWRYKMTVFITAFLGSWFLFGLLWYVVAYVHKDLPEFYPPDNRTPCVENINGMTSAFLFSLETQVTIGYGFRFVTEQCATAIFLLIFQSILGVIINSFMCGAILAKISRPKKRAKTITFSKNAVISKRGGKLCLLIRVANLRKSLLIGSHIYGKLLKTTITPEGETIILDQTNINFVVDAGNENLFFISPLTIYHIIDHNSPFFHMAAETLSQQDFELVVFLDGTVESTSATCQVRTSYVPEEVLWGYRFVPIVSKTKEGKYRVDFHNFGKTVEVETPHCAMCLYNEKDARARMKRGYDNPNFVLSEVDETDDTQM

[16] = intrinsic clearance, human
[17] = molecular target: C25 N172D/M175I/C176I (Mus musculus, UniProt P35561, A121P/A131S/A173S/C101L/C149F/C169V/C89I/D114R/D152E/DEL116-120/E125N/E153Q/F103W/F129M/F98L/G111K/I106V/I137L/I156T/I87V/INS113PEFYPPDN/L105V/L108Y/L109V/L90T/L94G/L97F/M160L/M180L/P155A/S124E/S128G/T141V/V102L/V126I/V158I/V161L/V162I/V167L/V179I/V86T/V93L/W104Y); experiment: patch clamp, C25 N172D/M175I/C176I mutant
[18] = tested on: L-type calcium channels; experiment: Ricerca Lead Profiling Screen radioligand binding
[19] = molecular target: Kir2.1 D172N/I176C (Mus musculus, UniProt P35561, D172N/I176C); experiment: patch clamp, Kir2.1 D172N/I176C mutant
[20] = molecular target: rKir4.1 (Rattus norvegicus, UniProt P49655); experiment: whole cell patch clamp, Kir4.1
[21] = molecular target: 2D6 (Homo sapiens, UniProt P10635)
[22] = molecular target: Kir1.1 N171D/C175I (Rattus norvegicus, UniProt P35560, C175I/N171D); experiment: patch clamp, Kir1.1 N171D/C175I mutant
[23] = molecular target: T2, Kir2.1; experiment: inside-out patch, compound applied from intracellular side; type: cell-based; settings: IC50 Kir2.1, inside-out patch, pH 6.5, applied from intracellular side
[24] = molecular target: 2C9 (Homo sapiens, UniProt P11712); experiment: CYP450 inhibition assay
[25] = molecular target: hKir2.3 (Homo sapiens, UniProt P48050); experiment: whole cell patch clamp, Kir2.3
[26] = molecular target: hKir2.6 (Homo sapiens, UniProt B7U540); experiment: whole cell patch clamp, Kir2.6
[27] = molecular target: hKir7.1 (Homo sapiens, UniProt O60928); experiment: whole cell patch clamp, Kir7.1; settings: IC50 Kir7.1, pH 7.4
[28] = tested on: KATP channel; settings: read-out: KATP channel IC50; cited from earlier work
[29] = pH 7.4, read-out: inhibition of C25 current
[30] = read-out: IC50 Kir2.1, pH 8.5, manual patch clamp

Sequence of Kir1.1 N171D (P35560 whole entry N171D): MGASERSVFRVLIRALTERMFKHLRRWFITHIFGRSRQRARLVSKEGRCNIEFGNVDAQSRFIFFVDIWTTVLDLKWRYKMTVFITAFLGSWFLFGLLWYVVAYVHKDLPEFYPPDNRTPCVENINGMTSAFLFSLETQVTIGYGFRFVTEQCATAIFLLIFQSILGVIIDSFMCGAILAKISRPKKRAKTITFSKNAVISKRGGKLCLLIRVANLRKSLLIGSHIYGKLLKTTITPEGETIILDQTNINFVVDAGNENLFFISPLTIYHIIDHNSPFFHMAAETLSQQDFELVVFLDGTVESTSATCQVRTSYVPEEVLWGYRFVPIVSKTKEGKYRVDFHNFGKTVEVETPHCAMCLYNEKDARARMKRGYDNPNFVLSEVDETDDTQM
Sequence of Kir1.1 N171D/C175I (P35560 whole entry N171D/C175I): as the sequence (P35560 whole entry N171D) above, with C175I counted along it
Sequence of hKir7.1 (O60928 whole entry): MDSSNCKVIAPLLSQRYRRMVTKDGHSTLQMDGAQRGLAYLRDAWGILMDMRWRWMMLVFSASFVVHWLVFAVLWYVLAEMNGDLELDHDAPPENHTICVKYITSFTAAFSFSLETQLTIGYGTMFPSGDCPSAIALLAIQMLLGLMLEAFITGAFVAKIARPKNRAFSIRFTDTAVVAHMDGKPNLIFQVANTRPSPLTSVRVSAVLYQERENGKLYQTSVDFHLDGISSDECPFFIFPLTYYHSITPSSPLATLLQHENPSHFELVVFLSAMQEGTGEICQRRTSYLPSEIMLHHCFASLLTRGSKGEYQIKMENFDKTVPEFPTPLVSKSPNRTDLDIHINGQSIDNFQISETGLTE
Sequence of N-type calcium channels (Q02294 whole entry): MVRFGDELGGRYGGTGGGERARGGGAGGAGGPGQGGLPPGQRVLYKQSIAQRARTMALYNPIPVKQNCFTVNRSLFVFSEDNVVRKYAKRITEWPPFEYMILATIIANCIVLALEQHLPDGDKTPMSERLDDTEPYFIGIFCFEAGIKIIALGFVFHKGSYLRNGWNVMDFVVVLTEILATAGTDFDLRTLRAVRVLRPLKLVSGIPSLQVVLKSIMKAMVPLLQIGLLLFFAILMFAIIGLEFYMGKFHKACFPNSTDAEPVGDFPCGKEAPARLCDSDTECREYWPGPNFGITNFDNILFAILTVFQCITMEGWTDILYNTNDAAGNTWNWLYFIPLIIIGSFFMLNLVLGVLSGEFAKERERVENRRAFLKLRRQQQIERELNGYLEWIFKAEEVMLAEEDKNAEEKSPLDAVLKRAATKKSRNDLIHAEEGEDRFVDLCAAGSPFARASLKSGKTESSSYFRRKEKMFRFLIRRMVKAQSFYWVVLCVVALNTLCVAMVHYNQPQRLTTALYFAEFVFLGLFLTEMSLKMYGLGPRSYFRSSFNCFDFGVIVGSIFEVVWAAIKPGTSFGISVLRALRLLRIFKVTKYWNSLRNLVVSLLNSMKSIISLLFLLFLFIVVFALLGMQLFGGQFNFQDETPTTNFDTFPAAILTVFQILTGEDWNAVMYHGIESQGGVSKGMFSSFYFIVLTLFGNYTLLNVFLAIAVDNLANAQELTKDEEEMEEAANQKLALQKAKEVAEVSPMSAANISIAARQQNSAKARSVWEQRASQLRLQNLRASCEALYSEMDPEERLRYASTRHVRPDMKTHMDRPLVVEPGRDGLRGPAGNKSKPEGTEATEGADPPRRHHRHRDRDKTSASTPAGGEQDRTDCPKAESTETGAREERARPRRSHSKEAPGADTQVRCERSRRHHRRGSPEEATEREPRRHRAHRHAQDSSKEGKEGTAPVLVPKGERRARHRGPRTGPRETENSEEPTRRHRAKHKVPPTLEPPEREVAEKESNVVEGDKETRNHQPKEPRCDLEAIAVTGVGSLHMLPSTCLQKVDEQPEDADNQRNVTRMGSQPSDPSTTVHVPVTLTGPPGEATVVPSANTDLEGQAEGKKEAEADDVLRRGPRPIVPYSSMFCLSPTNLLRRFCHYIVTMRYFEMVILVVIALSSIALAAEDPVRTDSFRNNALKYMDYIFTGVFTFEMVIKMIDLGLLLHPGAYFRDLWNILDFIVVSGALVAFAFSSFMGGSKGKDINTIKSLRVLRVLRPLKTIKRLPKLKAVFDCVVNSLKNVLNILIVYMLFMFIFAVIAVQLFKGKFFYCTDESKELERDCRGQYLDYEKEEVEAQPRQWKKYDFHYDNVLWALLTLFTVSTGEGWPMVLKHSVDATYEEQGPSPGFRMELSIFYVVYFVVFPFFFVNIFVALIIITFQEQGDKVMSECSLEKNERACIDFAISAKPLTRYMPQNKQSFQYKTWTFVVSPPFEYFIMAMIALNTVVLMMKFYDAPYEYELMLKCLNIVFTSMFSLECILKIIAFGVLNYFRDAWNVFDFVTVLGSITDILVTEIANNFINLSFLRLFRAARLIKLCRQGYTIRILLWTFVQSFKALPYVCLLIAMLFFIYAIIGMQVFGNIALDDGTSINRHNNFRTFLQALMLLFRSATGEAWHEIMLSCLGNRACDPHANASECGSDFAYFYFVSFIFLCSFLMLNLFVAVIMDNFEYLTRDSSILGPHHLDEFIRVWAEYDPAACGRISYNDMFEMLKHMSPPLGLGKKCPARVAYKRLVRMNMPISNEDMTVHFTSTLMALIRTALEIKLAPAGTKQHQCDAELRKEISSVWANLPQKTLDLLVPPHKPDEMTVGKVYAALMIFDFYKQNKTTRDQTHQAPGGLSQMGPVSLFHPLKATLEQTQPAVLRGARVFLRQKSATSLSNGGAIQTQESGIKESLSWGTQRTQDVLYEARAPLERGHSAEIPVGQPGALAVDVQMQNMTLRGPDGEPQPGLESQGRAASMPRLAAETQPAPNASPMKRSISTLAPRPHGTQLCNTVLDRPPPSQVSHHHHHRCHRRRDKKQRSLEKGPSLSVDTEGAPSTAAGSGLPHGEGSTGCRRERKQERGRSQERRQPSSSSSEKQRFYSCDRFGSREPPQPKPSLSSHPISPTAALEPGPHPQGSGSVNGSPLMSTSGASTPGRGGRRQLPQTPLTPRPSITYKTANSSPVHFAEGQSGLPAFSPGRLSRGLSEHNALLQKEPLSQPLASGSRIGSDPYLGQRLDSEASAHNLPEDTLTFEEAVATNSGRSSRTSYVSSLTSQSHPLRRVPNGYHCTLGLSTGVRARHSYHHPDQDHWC
Sequence of rKir4.1 (P49655 whole entry): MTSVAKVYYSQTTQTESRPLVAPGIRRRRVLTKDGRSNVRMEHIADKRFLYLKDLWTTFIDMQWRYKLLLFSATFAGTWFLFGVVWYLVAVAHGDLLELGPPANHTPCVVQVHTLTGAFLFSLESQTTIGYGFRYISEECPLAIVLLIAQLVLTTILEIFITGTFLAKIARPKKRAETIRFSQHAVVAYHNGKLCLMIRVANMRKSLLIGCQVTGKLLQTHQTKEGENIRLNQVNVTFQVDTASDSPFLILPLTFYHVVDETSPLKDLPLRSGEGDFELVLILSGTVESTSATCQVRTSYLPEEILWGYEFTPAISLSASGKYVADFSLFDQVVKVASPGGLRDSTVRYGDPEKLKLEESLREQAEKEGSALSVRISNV
Sequence of hKir2.6 (B7U540 whole entry): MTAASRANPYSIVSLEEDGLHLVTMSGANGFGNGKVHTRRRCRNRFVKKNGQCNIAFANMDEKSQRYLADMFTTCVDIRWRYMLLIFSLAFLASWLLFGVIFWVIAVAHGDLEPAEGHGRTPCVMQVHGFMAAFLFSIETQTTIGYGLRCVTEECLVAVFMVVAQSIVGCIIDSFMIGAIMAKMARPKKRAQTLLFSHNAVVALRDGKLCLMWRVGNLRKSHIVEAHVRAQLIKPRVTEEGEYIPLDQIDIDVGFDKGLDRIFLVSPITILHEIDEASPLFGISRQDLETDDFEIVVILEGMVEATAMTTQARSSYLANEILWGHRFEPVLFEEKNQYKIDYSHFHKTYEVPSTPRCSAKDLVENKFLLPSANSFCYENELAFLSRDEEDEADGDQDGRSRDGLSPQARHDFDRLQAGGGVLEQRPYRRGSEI
Sequence of 1A2 (P05177 whole entry): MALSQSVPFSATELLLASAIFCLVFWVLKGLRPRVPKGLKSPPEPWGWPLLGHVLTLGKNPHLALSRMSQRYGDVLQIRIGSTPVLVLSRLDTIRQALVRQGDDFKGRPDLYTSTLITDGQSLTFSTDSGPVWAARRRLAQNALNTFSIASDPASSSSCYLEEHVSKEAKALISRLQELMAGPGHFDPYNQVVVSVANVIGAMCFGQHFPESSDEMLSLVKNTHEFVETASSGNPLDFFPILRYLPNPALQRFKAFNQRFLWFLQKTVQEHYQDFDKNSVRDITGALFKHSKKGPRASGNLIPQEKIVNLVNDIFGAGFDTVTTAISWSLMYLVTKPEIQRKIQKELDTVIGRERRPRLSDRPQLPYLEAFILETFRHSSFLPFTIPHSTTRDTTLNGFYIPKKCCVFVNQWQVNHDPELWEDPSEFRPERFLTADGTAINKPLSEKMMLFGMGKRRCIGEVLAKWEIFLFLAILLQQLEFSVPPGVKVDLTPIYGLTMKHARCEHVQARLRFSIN
Sequence of 2D6 (P10635 whole entry): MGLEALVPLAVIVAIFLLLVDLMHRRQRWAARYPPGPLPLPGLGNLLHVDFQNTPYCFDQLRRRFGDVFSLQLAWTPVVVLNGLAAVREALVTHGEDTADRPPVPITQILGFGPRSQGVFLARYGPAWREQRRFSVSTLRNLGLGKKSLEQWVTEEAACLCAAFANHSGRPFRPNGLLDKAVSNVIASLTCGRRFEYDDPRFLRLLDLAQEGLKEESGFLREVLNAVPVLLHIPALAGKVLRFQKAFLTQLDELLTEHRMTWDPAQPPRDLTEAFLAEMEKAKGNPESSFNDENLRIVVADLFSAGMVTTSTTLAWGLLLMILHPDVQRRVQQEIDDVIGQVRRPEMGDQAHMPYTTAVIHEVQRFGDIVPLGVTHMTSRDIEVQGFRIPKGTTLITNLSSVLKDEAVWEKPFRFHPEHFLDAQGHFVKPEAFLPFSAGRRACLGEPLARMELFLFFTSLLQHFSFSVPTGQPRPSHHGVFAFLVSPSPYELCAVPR

SMILES: COc1ccc(CNCc2cccc3ccccc23)cc1 [ML133, N-(4-methoxybenzyl)-1-(naphthalen-1-yl)methanamine]
IC50 [1]: > 30 µM
protein bound [2]: > 99%
activity in MLPCN HTS assays not based on Kir2.1 [3]: inactive in all but two of 213 MLPCN HTS assays
IC50 ([4]; IC50 C25 N172D): 75 µM and 75.2 µM
Hill coefficient (NH) C25 N172D [4]: 2.2
Hill coefficient (NH) Kir1.1 N171D [5]: 1.6
IC50 [5]: 83.6 µM
activity at hERG [6]: inactive
ancillary pharmacology in 68-assay radioligand binding panel [7]: clean ancillary pharmacology; also recorded: clean profile
inhibition of C25 current ([8]; 30 μM): resistant
inhibition of C25 current ([8]; 100 μM): slightly inhibited
inhibition at 30 µM [8, 29]: < 20%
inhibition at 100 µM [8, 29]: ~30%
activity at N-type calcium channels [9]: inactive
IC50 [10]: 3.3 µM
effect on Kir2.1 currents ([11]; 3 μM, pH 6.5, 20 minute incubation): no significant effect
time to complete inhibition of Kir2.1 ([11]; 3 μM, pH 8.5): ≤ 5 min
wash out of compound effects ([11]; 3 μM, pH 8.5): approximately 10 minutes
IC50 ([11]; IC50 Kir2.1, pH 6.5, whole cell): 10 µM
IC50 ([11]; IC50 Kir2.1, pH 8.5, manual patch clamp): 0.29 µM
Hill coefficient (NH) Kir2.1 ([11]; pH 6.5): 1.8
Hill coefficient (NH) Kir2.1 ([11]; pH 7.4): 1.7
Hill coefficient (NH) Kir2.1 ([11]; pH 8.5): 4.0
intrinsic clearance [12]: high intrinsic clearance
protein bound [13]: > 99%
Hill coefficient (NH) Kir2.1 D172N [14]: 1.3
IC50 ([14]; IC50 Kir2.1 D172N, pH 7.4): 15 µM and 15.4 µM
IC50 ([15]; IC50 Kir1.1 (estimated), pH 8.5): 85.5 µM
IC50 ([15]; IC50 Kir1.1, pH 7.4): > 300 µM
effect on Kir1.1 current ([15]; pH 7.4, up to 300 μM): essentially insensitive; also recorded: not inhibited
intrinsic clearance [16]: high intrinsic clearance
IC50 [17]: 5.8 µM
Hill coefficient (NH) C25 triple mutant ([17]; pH 7.4): 1.1
activity at L-type calcium channels [18]: inactive
Hill coefficient (NH) Kir2.1 D172N/I176C [19]: 1.8
IC50 ([19]; IC50 Kir2.1 D172N/I176C, pH 7.4): 45 µM and 43.6 µM
IC50 [20]: 76 µM
IC50 [21]: 130 nM
Hill coefficient (NH) Kir1.1 N171D/C175I [22]: 2.3
IC50 [22]: 64 µM
IC50 [23]: 2600 nM
IC50 [24]: > 30 µM
IC50 [25]: 4 µM
IC50 [26]: 2800 nM
IC50 [27]: 33 µM and 32.9 µM

SMILES: COc1ccc(CNCc2ccc(OC)cc2)cc1 [14g]
IC50 ([11]; read-out: IC50 Kir2.1, pH 7.4, whole cell, compound applied extracellularly): 35 µM

SMILES: [Ba+2] [barium, reference compound]
inhibition of Kir1.1 ([15]; 5 mM): completely inhibited
inhibition of Kir1.1 current ([15]; at the end of the recording): over 85%

SMILES: COc1ccc(CNCc2ccc(Cl)cc2Cl)cc1 [13c]
IC50 [11, 30]: 3.89 µM

SMILES: COc1ccc(CNCc2ccccc2Cl)cc1 [14j]
IC50 [11, 30]: 13.9 µM

Continued, values first:

IC50 [11, 30]: 0.77 µM
SMILES: COc1ccc(CNCc2ccc(Cl)cc2)cc1 [14a]

IC50 [11, 30]: 1.39 µM
SMILES: COc1ccc(CNCc2ccc(C(C)(C)C)cc2)cc1 [14d]

IC50 [11, 30]: 1.06 µM
SMILES: COc1ccc(CNCc2cccc(Cl)c2)cc1 [14b]

IC50 [11, 30]: 5.15 µM
SMILES: COc1ccc(CNCc2ccccc2C)cc1 [14e]

— article PMC3177608 (ACS chemical biology, 2011)
